Patent US20220401459A1, “NEW APPLICATION OF CHEMOKINE RECEPTOR CCR6 INHIBITOR IN PREVENTING RECURRENCE OF PSORIASIS” (RUIJIN HOSPITAL, SHANGHAI JIAOTONG UNIVERSITY SCHOOL OF …, priority 2019, published 2022)
“Also recorded” adds a separate entry of the source.

Experiments:
[1] = tested on: imiquimod (IMQ)-induced mouse psoriasis model; assay: Imiquimod (IMQ)-induced mouse psoriasis model: GC treatment, withdrawal, re-induced recurrence; format: in vivo; details: for proportion of γδT17 (IL-17-secreting) cells in lymph nodes: after drug administration was stopped (2 weeks); for recurrence of psoriasis: psoriasis re-induced with IMQ after withdrawal
Text: (§1) In this example, an animal model to simulate clinical GC treatment for psoriasis was established (FIG. 2a). An imiquimod (IMQ)-induced mouse psoriasis model was utilized to simulate the whole clinical process of topical glucocorticoid treatment in patients with psoriasis: administering of drug—stop administering—recurrence of disease.
(§2) All mice were smeared with IMQ for three weeks. Among them, from the 6th day, GC or petrolatum (Vas) was applied to the skin of the mice, and all treatments were stopped on the 21st day. Mice entered a 2-week drug withdrawal period, after which IMQ was applied again for 7 consecutive days to induce psoriasis recurrence.
In order to simulate the clinical withdrawal period, all mice in the experimental group and the control group were rested for 2 weeks without treatment.
In this example, IMQ was applied to the mice in the experimental group and the control group again to simulate the recurrence of psoriasis after clinical withdrawal.

[2] = tested on: imiquimod (IMQ)-induced mouse psoriasis model; assay: as above; format: in vivo; details: imiquimod replaced by mannan for inducing recurrence
[3] = tested on: wild-type mice (WT), CCR6−/−, and CCR2−/− mice; assay: GC treatment and IMQ re-challenge in WT, CCR6−/− and CCR2−/− mice; format: in vivo, mouse
Text: as §1, §2
Cytokine receptors CCR6 and CCR2 are known to mediate the migration of γδT17 cells in the occurrence of skin inflammation. In this example, the above-mentioned mechanism was studied in wild-type mice (WT), CCR6^−/−, and CCR2^−/− mice.

[4] = tested on: patients with psoriasis vulgaris; assay: Psoriasis vulgaris patients, topical GC for 2 weeks, then stopped until relapse (flow cytometry, RNA-seq); format: in vivo, human
Protocol: In this example, patients with psoriasis vulgaris were recruited and glucocorticoids (GC) were topically (externally) administered for 2 weeks of treatment. Thereafter, the administration were stopped until the disease relapsed, and further research on the mechanism of psoriasis recurrence was carried out.
Transcriptome sequencing (RNA-seq) was performed on the skin lesions of these patients before GC treatment, after GC treatment, and after disease recurrence.
In this example, in psoriasis patients receiving GC treatment, the changes in the proportion of CD3+ T cells and T17 cells in the skin and peripheral blood before treatment, after treatment and during recurrence were detected.

[5] = 2 weeks after withdrawal, vs control group
[6] = TCRd−/− mice, IMQ re-challenge, GC vs Vas
[7] = CCR6−/− mice, after GC treatment
[8] = CCR6−/− mice, re-challenge with IMQ
[9] = after treatment and during recurrence
[10] = before, after treatment and during recurrence

Compound: CCCCCCCCc1ccc(CCC(N)(CO)CO)cc1 [FTY720]
- migration of γδT17 cells from the draining lymph nodes ([1]; GC group, recurrence): prevented
- rapid recurrence of psoriasis ([1]; mice in the GC group given FTY720): did not appear rapid recurrence

Compound: C[C@@H]1C[C@H]2[C@@H]3C[C@H](F)C4=CC(=O)C(Cl)=C[C@]4(C)[C@@]3(F)[C@@H](O)C[C@]2(C)[C@@]1(O)C(=O)CO [halometasone]
- rapid disease recurrence [2]: no longer had rapid disease recurrence
- proportions of γδT, Vγ4, Vγ4Vδ4 cells in draining and distant lymph nodes ([1]; 2 weeks after withdrawal): remained unchanged or slightly increased
- neutrophils infiltrated in the skin ([1]; 2 weeks after withdrawal, vs Vas control group): more neutrophils were infiltrated
- proportion of γδT17 in the skin [1, 5]: also lower
- proportions of CD3, γδT, Vγ4Vδ4 in the skin [1, 5]: still lower
- levels of IL-17 secreted by CD3 and γδT cells in the skin ([1]; IMQ re-challenge, GC vs Vas): not significantly different
- proportions of CD3 and γδT cells in the skin ([1]; IMQ re-challenge, GC vs Vas): not significantly different
- proportions of IL-17 secreted by γδT, Vγ4, Vγ4Vδ4 cells in distant lymph nodes ([1]; IMQ re-challenge, GC vs Vas): significantly lower
- proportions of Vγ4T17 and Vγ4Vδ4T17 cells in the skin ([1]; IMQ re-challenge, GC vs Vas): slightly decreased
- γδT17 in skin draining lymph nodes ([1]; IMQ re-challenge, GC vs Vas): no difference
- infiltrated neutrophils in the skin ([1]; IMQ re-challenge, vs Vas control group): exceeded
- epidermal thickening fold ([1]; IMQ re-challenge, vs Vas group): also higher
- neutrophils infiltrated in the skin ([1]; TCRd−/− mice, 2 weeks after withdrawal, GC vs Vas): no difference
- ear / epidermal thickening [1, 6]: no difference
- infiltrated neutrophils in the skin [1, 6]: opposite results
- neutrophil infiltration in the skin ([1]; TCRd−/− mice, after treatment, experimental vs control group): no statistical difference
- proportion of γδT17 cells in lymph nodes after stimulation ([1]; after drug administration was stopped): still significantly increased
- proportion of γδT17 (IL-17-secreting) cells in lymph nodes [1]: still significantly increased
- proportion of γδT17 (IL-17-secreting) cells in lymph nodes ([1]; listed as GC): significantly increased
- IL-17 secretion by Vγ4 cells and Vγ4Vδ4 cells in draining lymph nodes ([1]; after treatment): secreted more IL-17
- dermal γδT cells, especially Vγ4Vδ4 cells, in the skin ([1]; after treatment): significantly reduced
- proportion of CD3+ T cells in the skin ([1]; after treatment): significantly reduced
- proportion of IL-17 secretion of γδT, Vγ4, Vγ4Vδ4 cells in distal lymph nodes ([1]; after treatment): also higher
- proportion of Vγ4 cells in skin-draining lymph nodes ([1]; after treatment): increased
- proportion of γδT17 cells in draining and distal lymph nodes ([1]; after treatment): significantly increased
- proportion of γδT cells in skin-draining lymph nodes ([1]; after treatment): decreased
- proportions of IL1R expression in γδT, Vγ4, Vγ4Vδ4 cells in the skin ([1]; after treatment): all increased
- proportions of γδT, Vγ4, Vγ4Vδ4 T cells in distal lymph nodes ([1]; after treatment): higher
- neutrophil infiltration in the skin ([1]; after treatment, immunofluorescence and flow staining): reduced
- proportion of IL-17 secretion of γδT, Vγ4, Vγ4Vδ4 cells in distal lymph nodes ([1]; after treatment, listed as GC): all increased
- proportion of γδT17 cells in draining and distal lymph nodes ([1]; after treatment, listed as GC): increased in draining and distant lymph nodes
- proportions of CD3, γδ, Vγ4, Vγ4Vδ4 that secreted IL-17 (γδT17) in the skin ([1]; after treatment, listed as GC): reduced; also recorded: decreased in the skin
- proportions of γδT, Vγ4, Vγ4Vδ4 T cells in distal lymph nodes ([1]; after treatment, listed as GC): all increased
- ear thickening speed ([1]; after using IMQ again for 3 days, vs control group): faster
- ear thickness ([1]; day 21, vs control group (Vas)): significantly thinner
- proportion of γδT17 cells in draining and distal lymph nodes ([1]; psoriasis re-induced with IMQ): significant decrease
- recurrence of psoriasis [1]: relapsed rapidly
- recurrence of psoriasis ([1]; listed as GC): more severe disease recurrence
- proportion of Vγ4 and Vγ4Vδ4 T cells in the skin ([1]; psoriasis re-induced with IMQ, GC group vs Vas): higher
- proportions of γδT, Vγ4, Vγ4Vδ4 cells in lymph nodes ([1]; psoriasis re-induced with IMQ, GC group vs Vas, listed as GC): varied slightly or did not change; also recorded: mild or no change
- proportion of γδT17 cells in draining and distal lymph nodes ([1]; psoriasis re-induced with IMQ, listed as GC): indistinguishable or even lower
- symptoms of skin psoriasis ([1]; topical treatment of ear skin inflammation): significantly relieved
- proportion of γδT17 cells in lymph nodes ([3]; CCR6 KO mice, recurrence after GC treatment): did not show a decrease
- redistribution of γδT17 cells in vivo ([3]; CCR6 knockout mice): did not affect
- ear thickness vs corresponding control [3, 7]: no significant difference
- increased levels of IL-17 secreted by γδT, Vγ4, Vγ4Vδ4 cells in draining and distant sites [3, 7]: not observed
- proportion of γδT cells in lymph nodes ([3]; CCR6−/− mice, after treatment): did not show an increase
- disease recurrence [3, 8]: significantly suppressed
- levels of IL-17 secreted by dermal γδT, Vγ4, Vγ4Vδ4 cells vs corresponding control group [3, 8]: significantly lower
- proportions of γδT17, Vγ4T17, Vγ4Vδ4T17 cells in draining and distant lymph nodes (decrease) [3, 8]: not
- disease recurrence ([3]; WT and CCR2 mice, re-challenge with IMQ): faster disease recurrence
- ear thickness vs corresponding controls ([3]; WT and CCR2−/− mice, after GC treatment): significantly lower
- levels of IL-17 secreted by CD3, γδT, Vγ4, Vγ4Vδ4 cells in the skin vs corresponding control group ([3]; WT and CCR2−/− mice, re-challenge with IMQ): no significant difference
- proportions of γδT17, Vγ4T17, Vγ4Vδ4T17 cells in draining and distant lymph nodes ([3]; WT mice, re-challenge with IMQ): decreased
- ear thickness ([3]; WT, CCR6−/− and CCR2−/− mice (three strains), after GC treatment): reduced
- levels of IL-17 secreted by CD3, γδT, Vγ4, Vγ4Vδ4 cells in the skin ([3]; three strains of mice, after GC treatment): all reduced
- expression of chemokines CCL20, CCL5, CCL2, CXCL10 in skin lesions (RNA-seq) [4, 9]: decreased after treatment and increased during recurrence
- expression of psoriasis-related genes (IL-17, IL-23) in skin lesions [4, 9]: decreased after treatment, but increased during recurrence
- expression of psoriasis-related genes (IL-17, IL-23) in skin lesions ([4]; after treatment and during recurrence, listed as GC): down-regulated
- proportion of IL-17-producing T cells (T17 cells) in skin lesions [4, 10]: decreased after treatment and increased during recurrence
- proportion of IL-17-producing cells (T17 cells) in peripheral blood [4, 10]: increased after treatment and decreased during recurrence
- proportion of IL-17-producing T cells (T17 cells) in skin lesions ([4]; before, after treatment and during recurrence, listed as GC): decreased
- control of psoriasis ([4]; topical treatment): quickly and effectively control psoriasis
